Several values for one entry are separate records, joined by “and”; a condition that tells them apart may be missing. Equal entries are not always repeated.
Biological target: CUG repeats (fluorescein labeled RNA)
Assay: Fluorescence anisotropy, direct binding to fluorescein labeled CUG repeats
Conditions: absence of MBNL, 25° C.
Procedure: Fluorescent RNAs were ordered from Dharmacon RNA Technologies (Lafayette, Colo.), and deprotected according to the manufacturer's protocol. RNA was snap annealed in 175 mM NaCl, 20 mM Tris pH 7.5, 5 mM MgCl2. All fluorescence anisotropy experiments were performed in this buffer, with the addition of 0.1 mg/ml of heparin when using protein. Experiments were performed at 25° C. in a 7.5 mm wide Spectrosil® far UV quartz cuvette (Starna Cells, Inc, Atascadero, Calif.), using an L-format FluoroMax®-3 fluorimeter (Horiba Jobin Yvon, Inc., Edison, N.J.). Each anisotropy run was normalized by setting the initial value of the anisotropy of the RNA alone to zero, which converts the data into Δ anisotropy. Curves were graphed using KaleidaGraph (Synergy) software. For curve fitting of titrations and determining apparent Kd values, Equation 1 was used (Example 1). The error bars on the binding curve were obtained by averaging individual titration points from three separate experiments and calculating the standard deviation.
To determine if pentamidine binds to the CUG repeats and not to MBNL, fluorescein labeled CUG repeats (FIG. 3A) were used to monitor the binding of pentamidine directly to the CUG repeats in the absence of MBNL.

With `N=C(N)c1ccc(OCCCCCOc2ccc(C(=N)N)cc2)cc1` [pentamidine] the Kd was ~19 µM and 19 µM.

From patent publication US8436049B2, “Uses of pentamidine and related compounds” (State of Oregon Acting By and Through the State Board of …, priority 2008, dated 2013)
